Consider one compound from patent EP4786461A1, “PYRAZOLE CARBOXYLIC ACID DERIVATIVE AND USE THEREOF IN MEDICINE” (Haisco Pharmaceutical Group Co., Ltd., priority 2023, dated 2025).

Series [1] is described as follows: Rat pharmacokinetic assay. The series is classed as in vivo, SD rats. The settings on record: rat, po; rats, i.g., 10 mg/kg, plasma; read-out: AUC. The procedure:
Experimental animals: male SD rats, 180-200 g, purchased from Chengdu Dossy Experimental Animals Co., Ltd.
Experimental design: On the day of the experiment, the SD rats were randomly grouped according to their body weight. The animals were fasted but with water available overnight before the administration, and fed 4 h after the administration.
Blood was taken from the orbits at specified time points, and placed in an EDTAK2 centrifuge tube. The tube was centrifuged at 5000 rpm for 10 min, and the plasma was collected.
Blood sampling time points for the intravenous administration group: 0, 5 min, 15 min, 30 min, 1 h, 2 h, 4 h, 7 h and 24 h; blood sampling time points for the intragastric administration group: 0, 5 min, 15 min, 30 min, 1 h, 2 h, 4 h, 7 h and 24 h. Before analysis and detection, all the samples were stored at -60°C or lower. The samples were analyzed quantitatively by LC-MS/MS. Table 4-1 PK data of test compound (i.e., drug) in rats

Series [2] concerns the target T1, soluble guanylate cyclase (sGC) (Homo sapiens, UniProt Q02108+Q02153).
T1 construct: purchased ICE S2304F-H07SH2
T1 sequence (Q02153 1-619): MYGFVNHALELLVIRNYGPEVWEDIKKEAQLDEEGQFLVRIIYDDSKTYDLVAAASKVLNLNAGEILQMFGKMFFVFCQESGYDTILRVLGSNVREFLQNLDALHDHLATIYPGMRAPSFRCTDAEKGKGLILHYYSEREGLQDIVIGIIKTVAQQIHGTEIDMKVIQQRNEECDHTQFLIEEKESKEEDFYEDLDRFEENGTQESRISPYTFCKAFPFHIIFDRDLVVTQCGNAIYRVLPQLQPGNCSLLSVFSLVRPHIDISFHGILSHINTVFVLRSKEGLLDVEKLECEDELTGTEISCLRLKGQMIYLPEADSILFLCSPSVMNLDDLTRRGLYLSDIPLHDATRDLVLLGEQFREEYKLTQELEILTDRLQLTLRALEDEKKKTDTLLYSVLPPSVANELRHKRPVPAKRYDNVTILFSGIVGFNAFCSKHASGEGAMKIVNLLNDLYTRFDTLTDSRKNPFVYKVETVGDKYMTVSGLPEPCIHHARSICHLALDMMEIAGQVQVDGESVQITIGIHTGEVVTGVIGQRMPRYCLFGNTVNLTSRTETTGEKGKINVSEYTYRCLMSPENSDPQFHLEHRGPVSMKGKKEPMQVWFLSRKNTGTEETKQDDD
T1 sequence (Q02108 1-690): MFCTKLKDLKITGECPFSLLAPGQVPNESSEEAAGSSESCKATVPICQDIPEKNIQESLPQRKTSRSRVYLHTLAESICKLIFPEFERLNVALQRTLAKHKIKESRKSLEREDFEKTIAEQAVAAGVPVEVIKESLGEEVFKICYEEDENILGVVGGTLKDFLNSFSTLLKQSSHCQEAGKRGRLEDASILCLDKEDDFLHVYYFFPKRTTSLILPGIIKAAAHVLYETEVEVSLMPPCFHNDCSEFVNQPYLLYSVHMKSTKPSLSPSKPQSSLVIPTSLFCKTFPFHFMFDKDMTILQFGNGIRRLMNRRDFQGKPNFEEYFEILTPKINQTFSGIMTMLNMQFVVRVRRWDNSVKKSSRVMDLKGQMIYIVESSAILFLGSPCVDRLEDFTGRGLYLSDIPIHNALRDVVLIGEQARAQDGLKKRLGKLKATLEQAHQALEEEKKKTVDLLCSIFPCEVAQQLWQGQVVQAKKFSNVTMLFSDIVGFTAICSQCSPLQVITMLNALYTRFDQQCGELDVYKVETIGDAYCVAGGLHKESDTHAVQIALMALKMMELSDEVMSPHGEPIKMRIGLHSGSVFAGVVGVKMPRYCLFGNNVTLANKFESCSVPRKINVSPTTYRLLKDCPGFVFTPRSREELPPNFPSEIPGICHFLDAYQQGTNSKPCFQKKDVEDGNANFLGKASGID
Put plainly: In vitro detection experiment for soluble guanylate cyclase (sGC) activity (TR-FRET cGMP). The series is classed as biochemical. To be noted: enzymatic agonism and/or activation of sGC; 1.5 nM sGC, 5 µM GTP, 100 µM DETA NONOate. The procedure: First, 100 nL of the compounds at different concentrations were transferred to a 384-well reaction plate (Greiner, Cat. No. 784075) using Echo 655 (LABCYTE, Cat # 655), with the final DMSO concentration of 1% in the reaction mixture; 2 µL of sGC (ICE, Cat. No. S2304F-H07SH2) was added to the 384-well reaction plate, and the mixture was centrifuged at 1000 rpm for 1 min; and then 1 µL of DETA NONOate was added, and the mixture was incubated at 37°C for 10 min. After the incubation was completed, 2 µL of GTP was added, and the mixture was centrifuged at 1000 rpm for 1 min and reacted at 37°C for 60 min. In the reaction system, the final concentrations of sGC, GTP, and DETA NONOate were 1.5 nM, 5 µM, and 100 µM, respectively. After the reaction was completed, 5 µL of the test mixture (PerkinElmer, Cat. No. 62GM2PEG) was added, and the mixture was incubated at room temperature for 60 min. The TR-FRET signal (Ratio: 665/620 nm) was read using a microplate reader (BMG, Cat. No. PHERAstar FSX). A nonlinear regression curve was fitted using GraphPad Prism software, and EC50 values were calculated. Compound A (Example 1 in WO 2010065275) was used as a positive reference compound. The activation rate was calculated according to Equation 2-1, where Low control represents the TR-FRET signal value of 1 µM compound A, and High control represents the TR-FRET signal value in the DMSO well. Stimulation% = (aveHighcontrol−cpdwell)/(ave High control−ave Low; control)*100% [formula] Table 2-1 Results of enzymatic agonism and/or activation of test compounds on soluble guanylate cyclase (sGC).
(In general: Time-resolved FRET reads energy transfer from a long-lived donor to a nearby acceptor.)

A short description of series [3]: Mouse pharmacokinetic assay. The series is classed as in vivo, ICR mice. To be noted: mouse, po; mice, i.g., 10 mg/kg, plasma; read-out: AUC. Here is the method: Experimental objective: In this experiment, a single dose of test compounds was administered to ICR mice intravenously and intragastrically, the concentrations of the test compounds in the plasma of mice were measured, and the pharmacokinetic characteristics and bioavailability of the test compounds in mice were evaluated.
Experimental animals: male ICR mice, 20-35 g, purchased from Chengdu Dossy Experimental Animals Co., Ltd.
Experimental method: On the day of the experiment, the ICR mice were randomly grouped according to their body weight. The animals were fasted but with water available overnight before the administration, and fed 4 h after the administration.
Sampling: Blood was taken from the orbits at specified time points, and placed in an EDTAK2 centrifuge tube. The tube was centrifuged at 5000 rpm for 10 min, and the plasma was collected.
Time points for plasma collection in G1 group: 0, 5 min, 15 min, 30 min, 1 h, 2 h, 4 h, 7 h, and 24 h.
Time points for plasma collection in G2 group: 0, 5 min, 15 min, 30 min, 1 h, 2 h, 4 h, 7 h, and 24 h.
Before analysis and detection, all the samples were stored at -60°C or lower. The samples were analyzed quantitatively by LC-MS/MS. Table 3-1 PK data of test compound (i.e., drug) in mice

The nature of series [4]: Stability test in rat liver microsomes. The settings on record: rat, microsomes, rat liver microsomes 0.5 mg/mL, 1 µM compound, NADPH regeneration system, 37°C. The series is classed as in vitro ADME. Here is the method: At 37°C, 1 µM of the test compound was incubated with rat liver microsomes (0.5 mg/mL) supplemented with an NADPH regeneration system for 5, 10, 20, 30 and 60 minutes, and then the LC-MS/MS method was used to detect the concentration of the test compound in the resulting sample. The half-life (T1/2) and intrinsic clearance (CLint(mic)) of the compound in rat liver microsome solution were obtained by calculating the remaining percentage of the compound at the corresponding time points.
(Liver microsomes are a subcellular fraction often used to study metabolism.)

One may read the AUC as the area under the concentration-time curve, a measure of exposure. Usually EC50 stands for the midpoint of the concentration-response curve. What is called half-life is the time needed for the level to fall by half in the phase considered. Low values mean rapid decline, high ones slow decline. For the compound `CC(C)CN1CCN2c3cc(F)c(-c4ccc(Cl)cc4N4CCC[C@H](n5ncc(C(=O)O)c5C(F)F)C4)cc3CC[C@@H]2C1` [Compound 6-2], the AUC in series [1] and in series [3] was greater than 10000 ng·h/mL throughout. The same compound gave an EC50 in series [2] of less than 20 nM. In series [4], this compound had a half-life at 1 µM of 1.95 h. Moreover, in series [4] (read-out: CLint(mic)), the microsomal CLint at 1 µM came out at 11.8 µL/min/mg.
